Test results reported in patent publication US7718651B2, “Inhibitors of FtsZ and uses thereof” (priority 2002, dated 2010).
In brackets after ≈: the same amount, converted by molar mass. Where two headings read alike, the source gives them in different places.

Tested on: single drug resistant strains of M. tuberculosis
Test: microbe, parasite or virus in culture
Assay type: cell-based
Conditions: for MIC: Mycobacterium tuberculosis

Compound: CCOC(=O)Nc1cc(NC(C)CCCN(CC)CC)c2nc(-c3ccccc3)c(-c3ccccc3)nc2n1 (stereo not shown) [SRI-3072, [8-(4-Diethylamino-1-methyl-butylamino)-2,3-diphenyl-pyrido[2,3-b]pyrazin-6-yl]-carbamic acid ethyl ester]
- susceptibility of singly resistant strains: uniformly susceptible
- MIC (read-out: MIC, EMB-R): ≤ 0.1 µg/mL
- MIC (read-out: MIC, INH-R): 0.78 µg/mL (≈ 1.48 µM)
- MIC (read-out: MIC, KM-R): ≤ 0.1 µg/mL
- MIC (read-out: MIC, RMP-R): ≤ 0.1 µg/mL

Compound: CCOC(=O)Nc1cc2c(c(N)n1)N=C(c1ccccc1)CCN2 [SRI-7614, (1-Amino-8-phenyl-6,7-dihydro-5H-2,5,9-triaza-benzocyclohepten-3-yl)-carbamic acid ethyl ester]
- susceptibility of singly resistant strains: uniformly susceptible
- MIC (read-out: MIC, CS-R): 3.12 µg/mL (≈ 9.59 µM)
- MIC (read-out: MIC, EMB-R): 3.12 µg/mL (≈ 9.59 µM)
- MIC (read-out: MIC, INH-R): 6.25 µg/mL (≈ 19.2 µM)
- MIC (read-out: MIC, KM-R): 6.25 µg/mL (≈ 19.2 µM)
- MIC (read-out: MIC, PZA-R): 3.12 µg/mL (≈ 9.59 µM)
- MIC (read-out: MIC, RMP-R): 3.12 µg/mL (≈ 9.59 µM)
- MIC (read-out: MIC, TAC-R): 3.12 µg/mL (≈ 9.59 µM)
